Source: ChEMBL document CHEMBL4420075, “Seriniquinones, melanoma-specific anticancer agents” (2016)

Legend:
Format in all cases: functional
UO-31 = experiment: Growth inhibition of human UO31 cells assessed as cell growth incubated for 48 hrs by sulforhodamine B assay; set-up: concentration or dose not given beside the values
PC-3 = experiment: Growth inhibition of human PC3 cells assessed as cell growth incubated for 48 hrs by sulforhodamine B assay; set-up: concentration or dose not given beside the values
DU-145 = experiment: Growth inhibition of human DU145 cells assessed as cell growth incubated for 48 hrs by sulforhodamine B assay; set-up: concentration or dose not given beside the values
MDA-MB-468 = experiment: Growth inhibition of human MDA-MB-468 cells assessed as cell growth incubated for 48 hrs by sulforhodamine B assay; set-up: concentration or dose not given beside the values
IGROV-1 = experiment: Growth inhibition of human IGROV1 cells assessed as cell growth incubated for 48 hrs by sulforhodamine B assay; set-up: scale not given: the % may be the effect or the level left
COLO 205 = experiment: Growth inhibition of human COLO205 cells assessed as cell growth incubated for 48 hrs by sulforhodamine B assay; set-up: concentration or dose not given beside the values
HOP-62 = experiment: Growth inhibition of human HOP62 cells assessed as cell growth incubated for 48 hrs by sulforhodamine B assay; set-up: concentration or dose not given beside the values
KM12 = experiment: Growth inhibition of human KM12 cells assessed as cell growth incubated for 48 hrs by sulforhodamine B assay; set-up: concentration or dose not given beside the values
NCI-H322M = experiment: Growth inhibition of human NCI-H322M cells assessed as cell growth incubated for 48 hrs by sulforhodamine B assay; set-up: scale not given: the % may be the effect or the level left
MOLT-4 = experiment: Growth inhibition of human MOLT4 cells assessed as cell growth incubated for 48 hrs by sulforhodamine B assay; set-up: concentration or dose not given beside the values
SNB-75 = experiment: Growth inhibition of human SNB75 cells assessed as cell growth incubated for 48 hrs by sulforhodamine B assay; set-up: concentration or dose not given beside the values
SW-620 = experiment: Growth inhibition of human SW620 cells assessed as cell growth incubated for 48 hrs by sulforhodamine B assay; set-up: concentration or dose not given beside the values
CAKI-1 = experiment: Growth inhibition of human Caki1 cells assessed as cell growth incubated for 48 hrs by sulforhodamine B assay; set-up: concentration or dose not given beside the values
HOP-92 = experiment: Growth inhibition of human HOP92 cells assessed as cell growth incubated for 48 hrs by sulforhodamine B assay; set-up: concentration or dose not given beside the values
UACC-62 = experiment: Growth inhibition of human UACC62 cells assessed as cell growth incubated for 48 hrs by sulforhodamine B assay; set-up: concentration or dose not given beside the values
A498 = experiment: Growth inhibition of human A498 cells assessed as cell growth incubated for 48 hrs by sulforhodamine B assay; set-up: concentration or dose not given beside the values
TK-10 = experiment: Growth inhibition of human TK10 cells assessed as cell growth incubated for 48 hrs by sulforhodamine B assay; set-up: concentration or dose not given beside the values
HCT-116 = experiment: Growth inhibition of human HCT116 cells assessed as cell growth incubated for 48 hrs by sulforhodamine B assay; set-up: concentration or dose not given beside the values
NCI-H460 = experiment: Growth inhibition of human NCI-H460 cells assessed as cell growth incubated for 48 hrs by sulforhodamine B assay; set-up: concentration or dose not given beside the values
HT-29 = experiment: Growth inhibition of human HT-29 cells assessed as cell growth incubated for 48 hrs by sulforhodamine B assay; set-up: concentration or dose not given beside the values
OVCAR-8 = experiment: Growth inhibition of human OVCAR8 cells assessed as cell growth incubated for 48 hrs by sulforhodamine B assay; set-up: concentration or dose not given beside the values
SF-295 = experiment: Growth inhibition of human SF295 cells assessed as cell growth incubated for 48 hrs by sulforhodamine B assay; set-up: concentration or dose not given beside the values
OVCAR-4 = experiment: Growth inhibition of human OVCAR4 cells assessed as cell growth incubated for 48 hrs by sulforhodamine B assay; set-up: concentration or dose not given beside the values
SK-MEL-5 = experiment: Growth inhibition of human SK-MEL-5 cells assessed as cell growth incubated for 48 hrs by sulforhodamine B assay; set-up: concentration or dose not given beside the values
BT-549 = experiment: Growth inhibition of human BT549 cells assessed as cell growth incubated for 48 hrs by sulforhodamine B assay; set-up: concentration or dose not given beside the values
U-251 = experiment: Growth inhibition of human U251 cells assessed as cell growth incubated for 48 hrs by sulforhodamine B assay; set-up: concentration or dose not given beside the values
MDA-MB-435 = experiment: Growth inhibition of human MDA-MB-435 cells assessed as cell growth incubated for 48 hrs by sulforhodamine B assay; set-up: concentration or dose not given beside the values
OVCAR-3 = experiment: Growth inhibition of human OVCAR3 cells assessed as cell growth incubated for 48 hrs by sulforhodamine B assay; set-up: concentration or dose not given beside the values
SN12C = experiment: Growth inhibition of human SN12C cells assessed as cell growth incubated for 48 hrs by sulforhodamine B assay; set-up: concentration or dose not given beside the values
SK-MEL-2 = experiment: Growth inhibition of human SK-MEL-2 cells assessed as cell growth incubated for 48 hrs by sulforhodamine B assay; set-up: concentration or dose not given beside the values
CCRF-CEM = experiment: Growth inhibition of human CCRF-CEM cells assessed as cell growth incubated for 48 hrs by sulforhodamine B assay; set-up: concentration or dose not given beside the values
Malme-3M = experiment: Growth inhibition of human MALME-3M cells assessed as cell growth incubated for 48 hrs by sulforhodamine B assay; set-up: scale not given: the % may be the effect or the level left
SNB-19 = experiment: Growth inhibition of human SNB19 cells assessed as cell growth incubated for 48 hrs by sulforhodamine B assay; set-up: concentration or dose not given beside the values
HCC 2998 = experiment: Growth inhibition of human HCC2998 cells assessed as cell growth incubated for 48 hrs by sulforhodamine B assay; set-up: concentration or dose not given beside the values
SK-MEL-28 = experiment: Growth inhibition of human SK-MEL-28 cells assessed as cell growth incubated for 48 hrs by sulforhodamine B assay; set-up: concentration or dose not given beside the values
SK-OV-3 = experiment: Growth inhibition of human SKOV3 cells assessed as cell growth incubated for 48 hrs by sulforhodamine B assay; set-up: concentration or dose not given beside the values
NCI-H522 = experiment: Growth inhibition of human NCI-H522 cells assessed as cell growth incubated for 48 hrs by sulforhodamine B assay; set-up: concentration or dose not given beside the values
HL-60(TB) = experiment: Growth inhibition of human HL-60(TB) cells assessed as cell growth incubated for 48 hrs by sulforhodamine B assay; set-up: concentration or dose not given beside the values
K562 = experiment: Growth inhibition of human K562 cells assessed as cell growth incubated for 48 hrs by sulforhodamine B assay; set-up: concentration or dose not given beside the values
A549 = experiment: Growth inhibition of human A549/ATCC cells assessed as cell growth incubated for 48 hrs by sulforhodamine B assay; set-up: concentration or dose not given beside the values
NCI-H226 = experiment: Growth inhibition of human NCI-H226 cells assessed as cell growth incubated for 48 hrs by sulforhodamine B assay; set-up: concentration or dose not given beside the values
786-0 = experiment: Growth inhibition of human 786-0 cells assessed as cell growth incubated for 48 hrs by sulforhodamine B assay; set-up: concentration or dose not given beside the values
RXF 393 = experiment: Growth inhibition of human RXF393 cells assessed as cell growth incubated for 48 hrs by sulforhodamine B assay; set-up: concentration or dose not given beside the values
MDA-MB-231 = experiment: Growth inhibition of human MDA-MB-231 cells assessed as cell growth incubated for 48 hrs by sulforhodamine B assay; set-up: concentration or dose not given beside the values
NCI-H23 = experiment: Growth inhibition of human NCI-H23 cells assessed as cell growth incubated for 48 hrs by sulforhodamine B assay; set-up: concentration or dose not given beside the values
SR = experiment: Growth inhibition of human SR cells assessed as cell growth incubated for 48 hrs by sulforhodamine B assay; set-up: concentration or dose not given beside the values
NCI/ADR-RES = experiment: Growth inhibition of human NCI/ADR-RES cells assessed as cell growth incubated for 48 hrs by sulforhodamine B assay; set-up: concentration or dose not given beside the values
RPMI-8226 = experiment: Growth inhibition of human RPMI8226 cells assessed as cell growth incubated for 48 hrs by sulforhodamine B assay; set-up: concentration or dose not given beside the values
MCF7 = experiment: Growth inhibition of human MCF7 cells assessed as cell growth incubated for 48 hrs by sulforhodamine B assay; set-up: concentration or dose not given beside the values
SF-268 = experiment: Growth inhibition of human SF268 cells assessed as cell growth incubated for 48 hrs by sulforhodamine B assay; set-up: concentration or dose not given beside the values
UACC-257 = experiment: Growth inhibition of human UACC257 cells assessed as cell growth incubated for 48 hrs by sulforhodamine B assay; set-up: concentration or dose not given beside the values
T47D = experiment: Growth inhibition of human T47D cells assessed as cell growth incubated for 48 hrs by sulforhodamine B assay; set-up: concentration or dose not given beside the values
M14 = experiment: Growth inhibition of human M14 cells assessed as cell growth incubated for 48 hrs by sulforhodamine B assay; set-up: concentration or dose not given beside the values
Hs-578T = experiment: Growth inhibition of human Hs 578T cells assessed as cell growth incubated for 48 hrs by sulforhodamine B assay; set-up: concentration or dose not given beside the values
LOX IMVI = experiment: Growth inhibition of human LOXIMVI cells assessed as cell growth incubated for 48 hrs by sulforhodamine B assay; set-up: concentration or dose not given beside the values

CC(C)(C)OC(=O)NCC1CN(C(=O)CCc2ccc3c(=O)c4sc5c(=O)c6ccccc6c(=O)c5c4c(=O)c3c2)C1
Activity (UO-31): -81.64%
Activity (PC-3): 4.68%
Activity (DU-145): -95.53%
Activity (MDA-MB-468): -50.83%
Activity (IGROV-1): -62.41%
Activity (COLO 205): -97.62%
Activity (HOP-62): -74.88%
Activity (KM12): -27.78%
Activity (NCI-H322M): -94.65%
Activity (MOLT-4): -47.44%
Activity (SNB-75): -83.64%
Activity (SW-620): -23.01%
Activity (CAKI-1): 0.12%
Activity (HOP-92): -14.16%
Activity (UACC-62): -68.32%
Activity (A498): 35.61%
Activity (TK-10): -8.18%
Activity (HCT-116): -89.29%
Activity (NCI-H460): -45.51%
Activity (HT-29): -57.09%
Activity (OVCAR-8): -55.88%
Activity (SF-295): -95.8%
Activity (OVCAR-4): -90.58%
Activity (SK-MEL-5): -99.11%
Activity (BT-549): -94.11%
Activity (U-251): -70.04%
Activity (MDA-MB-435): -97.59%
Activity (OVCAR-3): -33.51%
Activity (SN12C): -79.71%
Activity (SK-MEL-2): -50.15%
Activity (CCRF-CEM): -45.34%
Activity (Malme-3M): -88.84%
Activity (SNB-19): -4.23%
Activity (HCC 2998): -90.99%
Activity (SK-MEL-28): -21.85%
Activity (SK-OV-3): -34.85%
Activity (NCI-H522): -42.91%
Activity (HL-60(TB)): -44.47%
Activity (K562): -13.04%
Activity (A549): -66.1%
Activity (NCI-H226): -51.46%
Activity (786-0): -48.69%
Activity (RXF 393): -48.97%
Activity (MDA-MB-231): -12.92%
Activity (NCI-H23): -39.91%
Activity (SR): -5.83%
Activity (NCI/ADR-RES): -12.16%
Activity (RPMI-8226): -36.74%
Activity (MCF7): -63.33%
Activity (SF-268): -39.06%
Activity (UACC-257): -95.5%
Activity (T47D): -33.26%
Activity (M14): -97.99%
Activity (Hs-578T): -20.36%
Activity (LOX IMVI): -69.24%
